1 compound from patent publication US20110306579A1, “METHODS OF NEUROPROTECTION USING NEUROPROTECTIVE STEROIDS AND A VITAMIN D” (EMORY UNIVERSITY, priority 2009, published 2011) can be followed below.

One assay deals with MAPK (ERK1/2). In words: MAPK phosphorylation (p-ERK1/2 Western blot) in primary cortical neurons. The settings on record: PROG 20 μM, 30-minute treatment. It is filed as cell-based, rat. How it is done: PROG and VDH were added to the primary cultures, as described above, for 30 minutes ([…], et al., (2002) Endocrinology 143: 205-212) and the cells were lysed using RIPA lysis buffer kit (sc-24948, Santa Cruz, Calif., USA). Protein was determined in cell lysates by bicinchoninic acid (BCA) protein assay (Cat. # 23225, Pierce, Rockford, Ill., USA). Cell lysates (40 μg protein each sample) were separated under reducing and denaturing conditions by 12.5% acrylamide Criterion gel (BioRad, Hercules, Calif., USA) at 200V for 1 hour and transferred to a polyvinylidene difluoride (PVDF) membrane at 100V for 30 minutes. The non-specific binding sites of the membrane were blocked with 5% non-fat dry milk in PBS-T (phosphate buffered saline containing 0.05% Tween-20). […] Membranes were then incubated in horseradish peroxidase (HRP)-conjugated secondary antibody (Goat anti-rabbit IgG; 074-1506, KPL, Gaithersburg, Md., USA). β-actin was probed as a loading control. Blots were developed using a chemiluminescent substrate (Pierce) for 5 minutes.

The subject of assay [1] is 20-month old Fischer 344 rats. In words: Cerebral edema analysis after cortical contusion brain injury. It is filed as in vivo, rat. The conditions noted are these: 4 mg/kg. How it is done: The methodology used is described in VanLandingham et al., Neuropharmacology, 2006, 51, 1078-1085.
Sterile surgical procedures were used to prevent animal infection. Rats (20-month old Fischer 344 rats, which are the “human” equivalent of about 60 years old) were anesthetized and maintained on isoflurane and an equivalent amount of […] and O2 for 3 min prior to surgery. After brain contusion, O2 levels were doubled compared to […] and maintained through the reainder of the surgery procedure. A stereotaxic apparatus was used to stabilize the head in a horizontal position. Core body temperature was monitored and maintained at 37° C. using a Harvard homeothermic blanket (Harvard Apparatus, Holliston, Mass.). There was no direct measure used to deterct brain temperature. Blood oxygen and heart rate were maintained using a SurgiVet monitor (SurgiVet, Waukesha, Wis.) and maintained above 90% and 340 bpm respectively. A midline incision was made and the scalp retracted. A bilateral 6-mm craniotomy was performed with surgical drill centered at 3 mm rostral to bregma. The stainless steel impactor was positioned over the MFC at 3.0 mm A/P and 0.0 M/L. These coordinates represent the MFC as described by Paxinos and Watson (The Rat Brain in Stereotaxic Coordinates, Academic Press, San Diego, 1986). The cortical injury was induced using a pneumatically controlled device (Hoffman et al., J. Neurotrauma, 1994, 11, 417-431). Brain impact duration was 0.5 s. using a 5-mm impactor tip with a velocity set at 2.125 m/s and a cortical depth of 2 mm. Following the contusion, bleeding was halded and fascia and scalp were sutured shut. After surgery, animals were allowed to recover from anesthesia on a homeothermic heating blanket in a holding cage until awake. sham surgeries controlled for anesthesia and stress. All surgical procedures were the same, except that sham rates were not given a craniotomy or cortical injury. Previous studies using craniotomy as a control found no differences between shams with or without this procedure. (Goss et al., Pharmacol. Biochem. Behay. 2003, 76(2), 231-242).
These experimental solutions were then diluted 1:1 with sterile water for a final concentration of HBC of 22.5%.
All injections were done at the same time with brain harvesting at 24 h post-injury. Rats in each group were weightd prior to treatment to ensure proper dosage. The first injection at 1 h after surgery was given intraperitoneally to ensure rapid adsorption. All subsequent injections were made subcutaneously for gradual adsorption at 6 and 24 h. Injection times and neurosteroid doses were based on previous results of neurosteroid treatment (Roof et al., Twenty First Annual Meeting of the Society for Neuroscience, Miami Beach Fla., p. 191 and He et al., Exp. Neurol. 2004, 189, 404-412). The sterioids were dissolved in vehicle (22.5% 2-hydroxypropyl-b-cyclodextrin solution) at 4 mg/kg. The sham group received no treatment and injury control group received vehicle only.
At 24 h after traumatic brain injury flresh brains were extracted from the skull and the dorsal cerebrum was separated along the line of the lateral fissure. Four 3-mm coronal sections were cut rostral to caudal, placed in pre-weighed 1.5 mL tubes and re-weighed (wet weight). Tubes were then left uncapped and placed in a vacuum oven set at 60° C. with an atmospheric pressure of 0.3 for 48 h. Following tube recapping, the tissue samples were again weighed (dry weight). Cerebral edema (% water content) was determined as the difference in wet and dry weights divided by wet weight (Roof and Stein Restor. Neurol. Ncurosci., 1992, 4, 425-427). Edema measures are reflective of the difference inwater content between at the average of the two most rostral (injury region) segments and most caudal (occipital cortex) segments of the dorsal sections of the brain.

Assay [2] relates to 20-month-old male Fischer 344 rats. In words: Spontaneous locomotor activity (open field) after TBI. It is filed as in vivo, rat. The settings on record: 72 hours after injury; normalized to sham.
From the text: The animals in this study were separated into two groups, vitamin D normal (D-normal) and vitamin D deficient (D-deficient). […] Animals in the D-deficient group were maintained on the diet for at least 21 days prior to surgery. […] For this same reason the null diet was not altered in any other way, and the rats assigned to the D-deficient group were maintained on it until they were killed for harvesting of brain tissue. Since vitamin D is activated by UVB light (280-315 nm wavelength), the overhead lights were modified to not produce radiation in this range.
Animals dehydrated due to blood loss were given 3 mL of lactated Ringer's solution subcutaneously within 6 hours of injury.
Animals were assigned to D-normal or D-deficicnt groups. […] The same assignment was followed for both 24-hour and 72-hour survival groups. […] All drug treatments were dissolved in vehicle, and injection volume was equally proportional to each animal's weight across all groups. The intact sham (SHAM) groups served to provide baseline data and therefore received no injury or injections.
In addition to molecular measures of inflammatory cytokines, the behavioral effects of the various treatments were examined. Since this study was limited to the short term effects on inflammation, only short-term Spontaneous Locomotor Activity was used.

As for `CC(=O)[C@H]1CCC2C3CCC4=CC(=O)CC[C@]4(C)C3CC[C@@]21C` (stereo partly shown) [progesterone], the “increase in p-ERK1/2 level compared to control group” value in the assay with MAPK (ERK1/2) is 2 ×. Further, the “edema compared to subjects treated with vehicle” value in assay [1] (24 hours post brain injury) is “decrease in edema”. In addition, the “mean % difference edema” value in assay [1] (brain tissue 24 hours post brain injury, i.p. at 1 h, s.c. at 6 and 24 h) is on record as 2.0%. Further, in assay [2], the “spontaneous locomotor activity (total distance, resting, stereotypy, movement time)” value is reported as “little or no benefit”.
